According to ChEMBL document CHEMBL1781941, “Synthesis and antitumor activity of 5-[1-(3-(dimethylamino)propyl)-5-halogenated-2-oxoindolin-(3Z)-ylidenemethyl]-2,4-dimethyl-1H-pyrrole-3-carboxamides” (Bioorg Med Chem Lett, 2011):
pIC50: −log10 of the molar value.

Tests used:
IM-9 [1] = test: Antitumor activity against human IM9 cells; format: functional, cell-based
A549 [2] = test: Antitumor activity against human A549 cells; format: functional, cell-based
HL-60 = test: Antitumor activity against human HL60 cells; format: functional, cell-based
MDA-MB-231 [3] = test: Antitumor activity against human MDA-MB-231 cells; format: functional, cell-based
K562 [4] = test: Antitumor activity against human K562 cells; format: functional, cell-based
HUVEC [5] = test: Inhibition of VEGF-induced cell proliferation in HUVEC by MTT assay; format: functional, cell-based; conditions: Homo sapiens
HUVEC [6] = test: Inhibition of bFGF-induced cell proliferation in HUVEC by MTT assay; format: functional, cell-based; conditions: Homo sapiens
IM-9 [7] = test: Ratio of Sunitinib IC50 to compound IC50 for human IM9 cells; format: functional
A549 [8] = test: Ratio of Sunitinib IC50 to compound IC50 for human A549 cells; format: functional
MDA-MB-231 [9] = test: Ratio of Sunitinib IC50 to compound IC50 for human MDA-MB-231 cells; format: functional
K562 [10] = test: Ratio of Sunitinib IC50 to compound IC50 for human K562 cells; format: functional

Row | pIC50 (IM-9 [1]) | pIC50 (A549 [2]) | pIC50 (HL-60) | pIC50 (MDA-MB-231 [3]) | pIC50 (K562 [4]) | Compound | pIC50 (HUVEC [5]) | pIC50 (HUVEC [6]) | Ratio IC50 (IM-9 [7]) | Ratio IC50 (A549 [8]) | Ratio IC50 (MDA-MB-231 [9]) | Ratio IC50 (K562 [10])
1 | 5.03 | 4.85 | 5.11 | 4.94 | 5.18 | Cc1[nH]c(/C=C2\C(=O)N(CCCN(C)C)c3ccc(Cl)cc32)c(C)c1C(=O)N1CCCC1 | 5.41 | 5.33 |  |  |  | 
2 | 4.72 | 4.67 | 4.92 | 4.88 | 4.94 | Cc1[nH]c(/C=C2\C(=O)N(CCCN(C)C)c3ccc(F)cc32)c(C)c1C(=O)N1CCCC1 | 5.18 | 4.95 |  |  |  | 
3 | 5.35 | 5.13 | 5.40 | 5.25 | 5.67 | Cc1[nH]c(/C=C2\C(=O)N(CCCN(C)C)c3ccc(Cl)cc32)c(C)c1C(=O)N1CCCCC1 | 5.88 | 5.69 |  |  |  | 
4 | 5.83 | 5.17 | 5.45 | 5.30 | 5.85 | Cc1[nH]c(/C=C2\C(=O)N(CCCN(C)C)c3ccc(Cl)cc32)c(C)c1C(=O)N1CCN(C)CC1 | 5.87 | 5.70 |  |  |  | 
5 | 5.65 | 5.05 | 5.58 | 5.46 | 5.61 | CCN1CCN(C(=O)c2c(C)[nH]c(/C=C3\C(=O)N(CCCN(C)C)c4ccc(Cl)cc43)c2C)CC1 | 5.99 | 5.75 |  |  |  | 
6 | 5.39 | 4.96 | 5.12 | 5.05 | 5.28 | Cc1[nH]c(/C=C2\C(=O)N(CCCN(C)C)c3ccc(F)cc32)c(C)c1C(=O)N1CCN(C)CC1 | 5.52 | 5.25 |  |  |  | 
7 | 5.14 | 4.86 | 4.87 | 5.09 | 5.22 | CCN1CCN(C(=O)c2c(C)[nH]c(/C=C3\C(=O)N(CCCN(C)C)c4ccc(F)cc43)c2C)CC1 | 5.80 | 5.47 |  |  |  | 

More lines, now with the values behind:

Row | Compound | pIC50 (IM-9 [1]) | pIC50 (A549 [2]) | pIC50 (HL-60) | pIC50 (MDA-MB-231 [3]) | pIC50 (K562 [4]) | pIC50 (HUVEC [5]) | pIC50 (HUVEC [6]) | Ratio IC50 (IM-9 [7]) | Ratio IC50 (A549 [8]) | Ratio IC50 (MDA-MB-231 [9]) | Ratio IC50 (K562 [10])
8 | Cc1[nH]c(/C=C2\C(=O)N(CCCN(C)C)c3ccc(F)cc32)c(C)c1C(=O)N(C)C | 4.75 | 4.60 | 4.83 | 4.72 | 4.87 | 5.28 | 4.70 |  |  |  | 
9 | Cc1[nH]c(/C=C2\C(=O)N(CCCN(C)C)c3ccc(Cl)cc32)c(C)c1C(=O)N(C)C | 5.03 | 4.80 | 5.14 | 4.92 | 5.17 | 5.79 | 5.08 |  |  |  | 
10 | CCN(CC)C(=O)c1c(C)[nH]c(/C=C2\C(=O)N(CCCN(C)C)c3ccc(F)cc32)c1C | 4.85 | 4.52 | 4.97 | 4.86 | 5.31 | 5.40 | 4.98 |  |  |  | 
11 | CCN(CC)C(=O)c1c(C)[nH]c(/C=C2\C(=O)N(CCCN(C)C)c3ccc(Cl)cc32)c1C | 5.20 | 4.88 | 5.40 | 5.17 | 5.68 | 5.54 | 5.31 |  |  |  | 
12 | Cc1[nH]c(/C=C2\C(=O)N(CCCN(C)C)c3ccc(F)cc32)c(C)c1C(=O)N1CCCCC1 | 5.32 | 4.73 | 5.36 | 4.94 | 5.39 | 5.39 | 5.28 |  |  |  | 
13 | CCN(CC)CCNC(=O)c1c(C)[nH]c(/C=C2\C(=O)N(CCCN(C)C)c3ccc(Cl)cc32)c1C.Cl.Cl.Cl | 6.33 | 5.51 | 5.97 | 5.64 | 6.28 | 5.57 | 5.51 | 2.1 | 2.1 | 2.1 | 4.6
14 | CCN(CC)CCNC(=O)c1c(C)[nH]c(/C=C2\C(=O)N(CCCN(C)C)c3ccc(F)cc32)c1C | 5.79 | 5.29 | 5.74 | 5.54 | 5.88 | 6.15 | 5.77 |  |  |  | 
15 | Cc1[nH]c(/C=C2\C(=O)N(CCCN(C)C)c3ccc(Cl)cc32)c(C)c1C(=O)NCCN(C)C | 6.35 | 5.45 | 5.93 | 5.61 | 6.28 | 5.95 | 5.47 |  |  |  | 
16 | Cc1[nH]c(/C=C2\C(=O)N(CCCN(C)C)c3ccc(F)cc32)c(C)c1C(=O)NCCN(C)C | 5.87 | 5.53 | 5.56 | 5.67 | 5.84 | 6.32 | 5.85 |  |  |  | 
17 | CCN(CC)CCNC(=O)c1c(C)[nH]c(/C=C2\C(=O)Nc3ccc(F)cc32)c1C [SUNITINIB] | 5.87 | 5.18 | 5.45 | 5.35 | 5.62 | 5.56 | 5.39 |  |  |  | 
